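Dose response: 5 concentrations. Exposure: 48 h. Format: 96-well plates. Endpoint: linear interpolation; highest concentration if not reached. Here, GI50 denotes the concentration required for 50% inhibition of growth. At the TGI there is no net growth.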
Assays:
Experiment in all cases: NCI tumour cell line growth inhibition, 48 h
SN12K1 renal = tested on: SN12K1 renal
P388 leukemia = tested on: P388 leukemia
P388/ADR leukemia = tested on: P388/ADR leukemia
LXFL 529 NSCLC = tested on: LXFL 529 NSCLC
RXF-631 renal = tested on: RXF-631 renal

Structure (SMILES)	TGI (SN12K1 renal)	TGI (P388 leukemia)	TGI (P388/ADR leukemia)	TGI (LXFL 529 NSCLC)	TGI (RXF-631 renal)	GI50 (LXFL 529 NSCLC)
CC1[C@@]2(O[C@@H]3C=C4C5CCC6Cc7nc8c(nc7C[C@@]6(C)C5C[C@H](O)[C@@]4(C)[C@]13O)CC1CCc3c(cc4c5c3C(O)C[C@H]5[C@@H](C)C3(O4)OC(C)(C)CC3O)[C@]1(C)C8)O[C@@](C)(CO)C[C@@H]2O (stereo partly drawn)	0.937 µM	> 3.72 µM	> 3.72 µM			
O=[N+]([O-])c1ccc(C[P+]2(c3ccccc3)CCCCC2)cc1 (tested in a mixture with another compound)				> 100 µM	> 100 µM	
Cc1ccc(C(=O)Nc2ccc(S(=O)(=O)O)c3cc(S(=O)(=O)O)cc(S(=O)(=O)O)c23)cc1NC(=O)c1cccc(NC(=O)Nc2cccc(C(=O)Nc3cc(C(=O)Nc4ccc(S(=O)(=O)O)c5cc(S(=O)(=O)O)cc(S(=O)(=O)O)c45)ccc3C)c2)c1				> 100 µM		
COc1cc(/C=C/c2ccc(OC)c(OC)c2)oc(=O)c1	> 250 µM	> 250 µM	> 250 µM			
COc1ccc(C2CC(c3sc(Nc4ccc(C)cc4)nc3C)=NN2)cc1 (stereo not drawn)	28.9 µM	20.3 µM	24.3 µM			
CCC1(O)C(=O)OCc2c1cc1n(c2=O)Cc2cc3cc4c(cc3nc2-1)OCO4 (stereo not drawn)	0.331 µM	0.117 µM	< 0.0172 µM	2.27 µM	1.13 µM	0.128 µM
